Results reported in US20120071475A1, “UREA DERIVATIVES HAVING PI3K-INHIBITING ACTIVITY” (SHIONOGI & CO., LTD., priority 2009, published 2012).
Where two headings read alike, the source gives them in different places.

What was measured:
[1] = target: T1, CYP3A4 (Homo sapiens, UniProt P08684); assay: CYP3A4 fluorescence MBI test; type: in vitro ADME; details: difference in IC50 with 0 or 30 minutes pre-reaction; CYP3A4 expressed in E. coli, substrate 7-BFC
T1 construct: host or cells: E. coli
Outline: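 E. coli-expressed CYP3A4 debenzylating 5.6 μmol/L 7-BFC to fluorescent 7-HFC (Ex 420/Em 535 nm) in K-Pi pH 7.4 at 25° C, 15 min reaction. NADPH pre-incubation of 0 or 30 min, with 10-fold dilution before reaction. IC50 from 0.625–20 μmol/L (6 points); (+) for an IC50 shift ≥5 μmol/L, (−) for ≤3 μmol/L.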

[2] = target: T2, PI3Kγ (Homo sapiens, UniProt P48736); assay: PI3Kγ inhibitory activity (PI3-kinase HTRF assay, inhibition ratio); type: biochemical; details: 0.5 h, compound at 10 μmol/L; read-out: PI3Kg Inhibition Ratio % (10 μM)
Outline: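 Compound at 10 μmol/L preincubated 10 min with PI3Kγ and PIP2 substrate, then reacted with ATP for 30 minutes at room temperature; the compound, substrate and ATP figures as printed (40 μmol/L each) are solution concentrations. HTRF 665/620 nm ratio read after 18 hours. Inhibition ratio calculated against no-compound (100%) and no-enzyme (0%) controls.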

[3] = test system: CYP1A2, CYP2C9, CYP2C19, CYP2D6 and CYP3A4 (one value for the five species); assay: CYP inhibition test, five CYP species together (5CYPs_IC50; pooled human liver microsome); type: in vitro ADME
Text: O-de-ethylation of 7-ethoxyresorufin (CYP1A2), methyl-hydroxylation of tolbutamide (CYP2C9), 4′-hydroxylation of mephenyloin (CYP2C19), O-demethylation of dextromethorphan (CYP2D6), and hydroxylation of terfenadine (CYP3A4), which are typical substrate for metabolic reactions of human main CYP5 molecular species (CYP1A2, 2C9, 2C19, 2D6, and 3A4), were adopted as indexes.
The reaction conditions are as follows: substrate: 0.5 μmol/L of ethoxyresorufin (CYP1A2), 100 μmol/L of tolbutamide (CYP2C9), 50 μmol/L of S-mephenyloin (CYP2C19), 5 μmol/L of dextromethorphan (CYP2D6), and 1 μmol/L of terfenadine (CYP3A4); reaction time; 15 minutes; reaction temperature: 37° C.; enzyme: pooled human liver microsome 0.2 mg protein/mL; test drug concentration: 1, 5, 10, and 20 μmol/L (4 points).
In a 96-well plate, as a reaction solution, five kinds of substrates, a human liver microsome, and a test drug were added to 50 mmol/L Hepes buffer solution in the aforementioned ratio. A coenzyme NADPH was added to start a metabolic reaction, which is an index. After reacting at 37° C. for 15 minutes, a solution of methanol/acetonitrile (1/1 (v/v)) was added to quench the reaction. After centrifugation at 3000 rpm for 15 minutes, resorufin (CYP1A2 metabolite) in the supernatant was quantitated with a fluorescence multilabel counter, and hydroxylated tolbutamide (CYP2C9 metabolite), 4′-hydroxylated mephenyloin (CYP2C19 metabolite), […], terfenadine in alcohol form (CYP3A4 metabolite) were quantitated with LC/MS/MS.
The case wherein only DMSO (a solvent which dissolved a drug) was added to a reaction system was defined as a control (100%). When a test drug solution was added, the remaining activity (%) at each concentration was calculated, and then IC50 was calculated with a concentration and an inhibition ratio by an inverse estimation using a logistic model.

[4] = Metabolic stability test (pooled human liver microsome); type: in vitro ADME; details: percentage of test compound remained after 30 minutes, pooled human liver microsome 0.5 mg protein/mL, 1 mmol/L NADPH, 37° C., compound 0.5 μM
Outline: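 Pooled human liver microsomes (0.5 mg protein/mL) incubated with compound and 1 mmol/L NADPH at 37° C. in pH 7.4 Tris buffer for 0 or 30 min. Parent quantified by LC/MS/MS after methanol/acetonitrile quench; value is % remaining at 30 min versus 0 min.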

[5] = test system: AKT phosphorylation; assay: AKT phosphorylation inhibitory activity in MCP-1 stimulated THP-1 cells (sandwich ELISA); type: cell-based, Human; details: Homo sapiens, compound at 1 μmol/L, MCP-1 stimulation, read-out: AKT phosphorylation inhibition ratio
Description: (1) The AKT phosphorylation inhibitory activity of a compound was evaluated according to the following procedure. (2) Human monocyte-like cell line THP-1 was washed with RPMI-1640 media, incubated in the presence of 5% CO2 at 37° C. for 3 hours, washed with Hank's balanced salt solution (HBSS), adjusted to a cell concentration of 6.7×10^6/mL, and then used in an experiment. (3) 30 μL of the cell suspension and 60 μL of each compound solution containing 0.2% DMSO/HBSS were mixed and then preincubated at 37° C. for 5 minutes. 30 μL of HBSS containing 1.2 μg/mL of MCP-1 was added thereto and then incubated for 60 seconds at 37° C. (4) 30 μL of a cell lysate (the final concentrations: 20 mmol/L Tris-HCl (pH 7.5), 150 mmol/L NaCl, 1 mmol/L EDTA, 1 mmol/L EDTA, 1% Triton X-100, 2.5 mmol/L sodium pyrophosphate, 1 mmol/L β-glycerophosphate, 1 mmol/L Na3VO4, 1 μg/ml leupeptin, 50 nmol/L APMSF) was added thereto to lyse cells. (5) The amount of AKT phosphorylation in the cell solution was measured by sandwich ELISA method using anti-Phospho-Akt (Ser473) antibody and anti-AKT1 antibody. (6) Anti-Phospho-Akt (Ser473) antibodies or anti-AKT1 antibodies were immobilized onto the solid phase of a micro well plate. The prepared cell lysate was added to the micro well plate, incubated, and then washed with ELISA wash solution. (7) An anti-AKT1 antibody or anti-Phospho-Akt (Ser473) antibody, which forms a counterpart to an antibody immobilized on the solid phase, was added thereto, incubated, washed similarly, and then reacted with an HRP-labeled anti-mouse IgG antibody. (8) After incubating for 30 minutes and then washing similarly, 100 μL of TMB (3,3′,5,5″-tetramethylbenzidine) was added thereto, followed by reacting for 30 minutes. (9) 100 μL of stop solution was added to quench the color reaction, and then the absorbance at 450 nm was measured. (10) The amount of AKT phosphorylation in a sample in the absence of a compound was defined as 100% activity, and the amount of AKT phosphorylation in a sample in the absence of MCP-1 was defined as 0% activity to calculate an inhibition ratio of each compound. The measurement was performed for a 1 μmol/L solution of each compound.

[6] = target: T3, hERG channel (IKr) (Homo sapiens, UniProt Q12809); assay: hERG test (whole-cell patch-clamp, IKr in HEK293 cells); type: cell-based; details: human, HEK293 cells expressing hERG channel, pH 7.4, inhibition of maximum tail current (IKr), compound 1 μM
T3 construct: expressed in transfected cells; host or cells: HEK293
Text: For the purpose of risk evaluation of QT interval extension of electrocardiogram, the activity on delayed rectification K^+ current (IKr), which plays an important role in a cardiac ventricle repolarization process, was examined using the HEK293 cell that was made to express human ether-a-go-go related gene (hERG) channel.
Using an automatic patch-clamp system (PatchXpress 7000A, Axon Instruments Inc.), by a whole-cell patch-clamp method, after the cell was maintained at a membrane potential of −80 mV, IKr induced upon applying depolarizing stimulation of +50 mV for 2 seconds and further applying repolarizing stimulation of −50 mV for 2 seconds was recorded. After generated electric current became stable, a test substance dissolved at an intended concentration in extracellular fluid (137 mmol/L NaCl, 4 mmol/L KCl, 1.8 mmol/L CaCl2.2H2O, 1 mmol/L MgCl2.6H2O, 10 mmol/L glucose, 10 mmol/L HEPES (4-(2-hydroxyethyl)-1-piperazineethanesulfonic acid), pH=7.4) was applied to the cell for 10 minutes under room temperature condition. From the obtained IKr, the absolute value of the maximum tail current was measured using analysis software (DataXpress ver. 1, Molecular Devices Corporation) and the value of the electric current in a maintained membrane potential as baseline. Moreover, an inhibition ratio for the maximum tail current prior to the application of the test substance was calculated and then compared with a group of media-application (0.1% dimethylsulfoxide solution) to evaluate influence of the test substance on IKr.

[7] = target: T2, PI3Kγ; assay: PI3Kγ inhibitory activity (Ki value); type: biochemical; details: read-out: PI3Kγ Ki value
Description: The PI3Kγ inhibitory activity (Ki value) of a compound was evaluated according to the following procedure:
5 μL of a compound solution containing 10% DMSO and […] of a compound was changed to 5 μL of a compound solution containing 10% DMSO and either 200, 64, 20, 6.4, 2, 0.64, or 0.20 μmol/L of the compound (optionally, this is diluted to a lower concentration). Using a method similar to the method for measuring PI3Kγ inhibitory activity, inhibition ratios of PI3Kγ were measured in the presence of the compound at 50, 16, 5, 1.6, 0.5, 0.16, and 0.05 μmol/L (optionally, a lower concentration). Then an IC50 value was calculated by a logistic approximation method or the linear regression method using two concentrations that cross 50% inhibition. Separately, the ATP concentration in the reaction solution (40 μmol/L ATP, 10 mmol/L MgCl2, 5 mmol/L DTT) at the time of the start of a reaction in the absence of the compound was changed to 80, 40, 20, 10, 5, 2.5, 1.25, or 0.625 μmol/L. Then, HTRF ratios were measured by a similar method. The value obtained by subtracting the HTRF ratio at each ATP concentration from the HTRF ratio in the absence of PI-3 kinase y was defined as the value obtained by multiplying reaction rate (v) at each ATP concentration with a constant. The Michaelis-Menten constant Km was then calculated by the Lineweaver-Burk plot method. The Ki value of a compound was calculated by the following formula wherein “μM” denotes “μmol/L.”
Ki value ═IC50 value/(1+test ATP concentration (μM)/Km (μM))

T2 sequence (P48736 whole entry, species assumed): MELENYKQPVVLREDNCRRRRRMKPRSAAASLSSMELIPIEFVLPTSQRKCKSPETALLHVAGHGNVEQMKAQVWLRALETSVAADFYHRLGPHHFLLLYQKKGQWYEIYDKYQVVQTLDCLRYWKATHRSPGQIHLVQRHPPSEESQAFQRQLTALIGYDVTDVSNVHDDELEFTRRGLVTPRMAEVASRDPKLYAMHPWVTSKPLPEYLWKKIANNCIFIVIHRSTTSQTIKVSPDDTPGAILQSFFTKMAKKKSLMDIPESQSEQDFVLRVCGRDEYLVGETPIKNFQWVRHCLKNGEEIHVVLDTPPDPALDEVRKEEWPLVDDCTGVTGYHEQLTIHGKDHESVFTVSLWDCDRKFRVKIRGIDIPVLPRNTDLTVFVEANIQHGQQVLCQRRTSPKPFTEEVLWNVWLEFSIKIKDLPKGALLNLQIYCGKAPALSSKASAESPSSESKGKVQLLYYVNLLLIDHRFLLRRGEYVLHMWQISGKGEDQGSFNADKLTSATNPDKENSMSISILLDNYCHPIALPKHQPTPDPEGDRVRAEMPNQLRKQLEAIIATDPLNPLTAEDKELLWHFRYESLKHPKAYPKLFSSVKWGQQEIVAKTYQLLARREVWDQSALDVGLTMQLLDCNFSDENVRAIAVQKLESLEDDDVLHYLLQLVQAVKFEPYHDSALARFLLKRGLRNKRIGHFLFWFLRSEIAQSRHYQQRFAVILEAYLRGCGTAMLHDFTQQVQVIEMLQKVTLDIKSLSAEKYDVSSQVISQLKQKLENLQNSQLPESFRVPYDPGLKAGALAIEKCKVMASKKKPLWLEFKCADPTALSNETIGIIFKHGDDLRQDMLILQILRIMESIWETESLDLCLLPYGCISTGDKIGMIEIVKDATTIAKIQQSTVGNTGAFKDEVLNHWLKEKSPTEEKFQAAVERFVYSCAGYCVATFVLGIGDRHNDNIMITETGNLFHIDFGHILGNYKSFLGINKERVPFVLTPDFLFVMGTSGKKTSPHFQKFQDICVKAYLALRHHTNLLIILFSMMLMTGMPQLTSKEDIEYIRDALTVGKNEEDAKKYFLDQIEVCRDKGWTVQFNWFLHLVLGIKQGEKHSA
T1 sequence (P08684 whole entry): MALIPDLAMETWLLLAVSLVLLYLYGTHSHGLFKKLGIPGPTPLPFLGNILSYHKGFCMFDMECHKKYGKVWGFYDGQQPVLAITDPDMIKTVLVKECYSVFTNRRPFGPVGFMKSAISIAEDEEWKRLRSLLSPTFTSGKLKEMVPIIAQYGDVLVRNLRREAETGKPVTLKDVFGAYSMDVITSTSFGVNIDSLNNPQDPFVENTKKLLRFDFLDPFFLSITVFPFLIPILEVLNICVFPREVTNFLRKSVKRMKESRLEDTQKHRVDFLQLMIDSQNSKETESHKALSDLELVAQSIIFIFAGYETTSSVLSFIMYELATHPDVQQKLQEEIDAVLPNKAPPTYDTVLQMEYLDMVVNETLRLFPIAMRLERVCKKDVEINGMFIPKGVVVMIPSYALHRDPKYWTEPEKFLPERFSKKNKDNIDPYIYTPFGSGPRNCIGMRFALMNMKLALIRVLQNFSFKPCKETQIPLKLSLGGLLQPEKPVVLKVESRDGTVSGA
T3 sequence (Q12809 whole entry): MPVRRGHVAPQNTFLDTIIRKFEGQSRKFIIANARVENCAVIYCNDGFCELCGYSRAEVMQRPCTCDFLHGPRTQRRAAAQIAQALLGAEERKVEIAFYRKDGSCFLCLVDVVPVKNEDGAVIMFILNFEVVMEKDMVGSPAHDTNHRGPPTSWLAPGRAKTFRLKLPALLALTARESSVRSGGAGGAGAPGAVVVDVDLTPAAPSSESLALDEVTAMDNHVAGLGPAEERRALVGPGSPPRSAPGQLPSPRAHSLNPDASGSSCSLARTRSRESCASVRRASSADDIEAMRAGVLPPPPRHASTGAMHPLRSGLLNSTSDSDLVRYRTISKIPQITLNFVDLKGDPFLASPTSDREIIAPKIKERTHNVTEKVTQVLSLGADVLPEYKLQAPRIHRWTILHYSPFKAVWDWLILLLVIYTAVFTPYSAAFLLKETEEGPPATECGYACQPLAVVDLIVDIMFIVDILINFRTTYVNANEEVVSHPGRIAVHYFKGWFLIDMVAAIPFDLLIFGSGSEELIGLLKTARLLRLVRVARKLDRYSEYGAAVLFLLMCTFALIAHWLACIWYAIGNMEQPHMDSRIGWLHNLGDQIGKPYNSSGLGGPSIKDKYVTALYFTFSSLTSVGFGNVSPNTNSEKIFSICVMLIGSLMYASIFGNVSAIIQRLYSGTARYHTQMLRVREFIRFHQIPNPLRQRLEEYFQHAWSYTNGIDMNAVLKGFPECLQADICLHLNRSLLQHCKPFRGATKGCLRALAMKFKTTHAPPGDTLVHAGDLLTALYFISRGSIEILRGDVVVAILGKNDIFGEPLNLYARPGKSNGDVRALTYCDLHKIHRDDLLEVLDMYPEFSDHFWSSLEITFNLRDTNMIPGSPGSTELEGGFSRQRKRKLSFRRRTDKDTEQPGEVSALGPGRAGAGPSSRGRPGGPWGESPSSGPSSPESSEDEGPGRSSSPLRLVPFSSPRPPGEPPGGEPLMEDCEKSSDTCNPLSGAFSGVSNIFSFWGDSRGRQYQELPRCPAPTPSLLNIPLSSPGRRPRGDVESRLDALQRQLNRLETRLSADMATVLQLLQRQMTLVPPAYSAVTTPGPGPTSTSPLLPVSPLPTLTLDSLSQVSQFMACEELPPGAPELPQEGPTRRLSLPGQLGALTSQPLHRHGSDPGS

Compound	inhibition at 10 µM [2]	IC50 at 15 min ([3]; human, microsomes)	MBI [1]	other results
COc1cc(N2CCc3nc(NC(=O)Nc4ccccc4C(=O)O)sc3C2)nc(OC)n1.Cl.Cl [Compound I-5]	85%		(−) (When 3 μmol/L or less, the compound is shown as (−))	IC50 at 15 min ([3]; pooled human liver microsomes, one value for five species (CYP1A2, 2C9, 2C19, 2D6, 3A4), pooled human liver microsome 0.2 mg protein/mL, 15 minutes, 37° C., test drug 1-20 μmol/L, read-out: 5CYPs_IC50): ≥ 10 µM
COc1cc(N2CCc3nc(NC(=O)Nc4ccccc4C(C)=O)sc3C2)nc(OC)n1 [Compound I-9]	93%	≥ 10 µM	(−) (When 3 μmol/L or less, the compound is shown as (−))	
COc1ccc(N2CCc3nc(NC(=O)Nc4ccccc4C(=O)NC(C)C)sc3C2)cn1 [Compound I-50]		≥ 10 µM		
COc1cc(N2CCc3nc(NC(=O)Nc4ccccc4C(=O)C(C)C)sc3C2)nc(OC)n1 [Compound I-64]		≥ 10 µM		
COc1cncc(C2CCc3nc(NC(=O)Nc4ccccc4C(=O)NC(C)C)sc3C2)c1 (stereo not drawn) [Compound I-81]		> 20 µM	(−) (When 3 μmol/L or less, the compound is shown as (−))	
COCCNC(=O)c1ccccc1NC(=O)Nc1nc2c(s1)CN(c1cc(OC)nc(OC)n1)CC2 [Compound I-86]	≥ 95%	≥ 10 µM	(−) (When 3 μmol/L or less, the compound is shown as (−))	
COc1cc(N2CCc3nc(NC(=O)Nc4ccc(F)cc4C(=O)NC(C)C)sc3C2)cnc1OC [Compound I-105]		≥ 10 µM		
COc1cc(N2CCc3nc(NC(=O)Nc4cn(C)nc4C(=O)NC(C)C)sc3C2)nc(OC)n1 [Compound I-106]		≥ 10 µM		hLMS_ox(at 0.5 μM) % [4]: 83.9%
CC(C)NC(=O)c1ccccc1NC(=O)Nc1nc2c(s1)CN(c1cncc(S(=O)(=O)N(C)C)c1)CC2 [Compound I-108]		> 20 µM	(−) (When 3 μmol/L or less, the compound is shown as (−))	
CC(CO)NC(=O)c1ccccc1NC(=O)Nc1nc2c(s1)CN(c1cccc(F)c1)CC2 (stereo not drawn) [Compound I-115]	≥ 95%	≥ 10 µM		hLMS_ox(at 0.5 μM) % [4]: 84.7%
COc1cc(N2CCc3nc(NC(=O)Nc4ccccc4C(O)CCC(C)C)sc3C2)nc(OC)n1 (stereo not drawn) [Compound I-117]		> 20 µM		

Further lines, with some results ahead:

inhibition at 10 µM [2]	IC50 at 15 min ([3]; human, microsomes)	Compound	MBI [1]	other results
≥ 95%		CNS(=O)(=O)c1cncc(N2CCc3nc(NC(=O)Nc4ccccc4C(=O)NC(C)C)sc3C2)c1 [Compound I-129]	(−) (When 3 μmol/L or less, the compound is shown as (−))	inhibition at 1 µM [5]: ≥ 95%; inhibition at 10 min, 1 µM [6]: 5.5%
77%		Cc1nc(NC(=O)Nc2ccccc2C(=O)NC(C)C)sc1-c1csc(S(=O)(=O)N2CCC(O)CC2)c1 [Compound I-146]		inhibition at 1 µM [5]: ≥ 95%; Ki [7]: 0.047 µM
71%	≥ 10 µM	O=C(Nc1nc2c(s1)CN(c1cncc(C(F)(F)F)c1)CC2)Nc1ccccc1C(=O)NC(CO)CO [Compound I-173]	(−) (When 3 μmol/L or less, the compound is shown as (−))	
	> 20 µM	CC(C)NC(=O)c1ccccc1NC(=O)Nc1nc2c(s1)CN(c1ccc(C(F)(F)F)cc1)CC2 [Compound I-208]		
≥ 95%	≥ 10 µM	CC(=O)c1cccc(-c2ccc3nc(NC(=O)Nc4ccccc4OCCC(C)C)sc3n2)c1 [Compound I-219]		
	≥ 10 µM	CC(=O)c1cccc(-c2ccc3nc(NC(=O)Nc4ccccc4N4CCCC4=O)nn3c2)c1 [Compound I-224]		
